From patent US20230000842A1, “METHODS OF TREATING CARTILAGE DISORDERS THROUGH INHIBITION OF CLK AND DYRK” (SAMUMED, LLC, priority 2019, published 2023)
Read-outs that look alike come from different tables or passages of the source.

Tests used:
[1] = tested on: Wnt pathway activity (SW480 colon carcinoma cells stably expressing the Sp5-Luc reporter); test: Wnt pathway activity screening assay (Sp5-Luc reporter gene assay); details: SW480 cells stably expressing Sp5-Luc reporter, 10-point dose-response from 10 μM, 36 to 48 hours
CLK3 kinase = CLK3 kinase (Homo sapiens, UniProt P49761); test: CLK3 kinase activity assay (Z-lyte FRET); type: biochemical; details: Z-lyte Ser/Thr 18 peptide, 156 μM ATP, 1 h at room temperature;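 note: kinase activity read as coumarin/fluorescein emission ratio by FRET, unphosphorylated peptide as 0% and phosphorylated peptide as 100% control, values from non-linear regression of dose-response curves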
[2] = tested on: primary human mesenchymal stem cells (hMSCs); test: Chondrogenesis screening using primary human mesenchymal stem cells; type: cell-based; details: hMSC chondrogenesis; for EC50: concentration required to induce 50% levels of chondrogenesis with TGF-β3 as positive control, read-out: Conc (nM) of 50% TGF-β3 activity; for Emax: read-out: Max. Activity as % TGF-β3 activity
Excerpt: Representative compounds were screened using primary human mesenchymal stem cells (hMSCs) to determine their ability to induce chondrogenesis (process by which cartilage is developed).
Human Mesenchymal Stem Cell Culture: Primary human mesenchymal stem cells (hMSCs) were purchased from Lonza (Walkersville, Md.) and expanded in Mesenchymal Stem Cell Growth Media (Lonza). Cells between passage 3 and 6 were used for the experiments.
Area of nodules in each well was normalized to the average of 3 DMSO treated wells on the same plate using Excel (Microsoft Inc.). The normalized averages (fold change over DMSO) of 2 or 3 replicate wells for each compound concentration were calculated. Due to solubility limitations of some of the compounds, curve fitting was incomplete leading to inaccurate EC50 determinations.
Using TGF-β3 as a positive control, the concentration of representative compounds required to induce 50% levels of chondrogenesis is reported. In addition, the maximum activity of each compound and the respective dose that each compound reached maximum chondrogenesis activity is reported.

CLK2 kinase = CLK2 kinase (Homo sapiens, UniProt P49760); test: CLK2 kinase activity assay (Z-lyte FRET); type: biochemical; details: Z-lyte Ser/Thr 6 peptide, 60 μM ATP, 1 h at room temperature;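 note: FRET read-out as coumarin to fluorescein emission ratio, unphosphorylated peptide as 0% and phosphorylated peptide as 100% controls, duplicate reactions, non-linear regression fit of dose-response curves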
[3] = Homo sapiens, Mesenchymal stem cells
[4] = Homo sapiens, Mesenchymal stem cells, maximum activity relative to TGF-β3 (10 ng/mL) positive control

Chain of CLK3 kinase (P49761 whole entry): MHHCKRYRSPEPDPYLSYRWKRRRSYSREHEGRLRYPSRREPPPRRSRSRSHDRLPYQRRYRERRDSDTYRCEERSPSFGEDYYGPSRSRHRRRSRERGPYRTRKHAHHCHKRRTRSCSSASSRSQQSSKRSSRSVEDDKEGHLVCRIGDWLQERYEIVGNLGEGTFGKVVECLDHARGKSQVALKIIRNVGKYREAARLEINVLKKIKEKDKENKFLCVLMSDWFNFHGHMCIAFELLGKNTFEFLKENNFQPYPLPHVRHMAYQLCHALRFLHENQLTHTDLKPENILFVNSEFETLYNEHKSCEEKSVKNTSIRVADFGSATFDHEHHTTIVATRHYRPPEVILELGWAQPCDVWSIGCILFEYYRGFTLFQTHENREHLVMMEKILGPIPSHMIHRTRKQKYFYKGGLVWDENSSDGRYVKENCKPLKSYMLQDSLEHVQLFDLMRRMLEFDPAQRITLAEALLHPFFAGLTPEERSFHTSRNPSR
Chain of CLK2 kinase (P49760 whole entry): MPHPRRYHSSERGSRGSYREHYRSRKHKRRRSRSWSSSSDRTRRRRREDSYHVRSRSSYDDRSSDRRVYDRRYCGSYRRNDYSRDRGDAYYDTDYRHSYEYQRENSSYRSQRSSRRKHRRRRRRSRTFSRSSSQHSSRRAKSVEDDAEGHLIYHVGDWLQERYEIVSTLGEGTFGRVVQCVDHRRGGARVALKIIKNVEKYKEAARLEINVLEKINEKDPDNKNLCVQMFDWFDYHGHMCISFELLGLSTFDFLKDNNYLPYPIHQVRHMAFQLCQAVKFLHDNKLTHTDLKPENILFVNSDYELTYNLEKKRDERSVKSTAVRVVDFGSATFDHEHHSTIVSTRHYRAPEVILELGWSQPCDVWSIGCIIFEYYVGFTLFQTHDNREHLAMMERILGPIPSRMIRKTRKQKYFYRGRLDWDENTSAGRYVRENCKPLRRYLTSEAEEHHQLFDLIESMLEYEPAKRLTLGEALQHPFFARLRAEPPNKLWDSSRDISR

Row | EC50 ([1]; Homo sapiens, SW480, Table 4) | EC50 (CLK3 kinase) | EC50 [2, 3] | EC50 (CLK2 kinase) | EC50 [2] | EC50 ([1]; Table 4) | Structure (SMILES) | Emax [2, 4] | Max. Activity as % TGF-β3 activity ([2]; maximum activity relative to TGF-β3 (10 ng/mL) positive control)
1 | 0.0822 µM | 0.041 µM | 100 nM | 0.004 µM |  |  | CN(C)Cc1cncc(-c2cc3c(-c4nc5c(-c6cccc(F)c6)cccc5[nH]4)n[nH]c3cn2)c1 [compound 135] | 311% | 
2 | 0.637 µM | 0.109 µM | 30 nM | 0.002 µM |  |  | CN(C)Cc1cncc(-c2ccc3[nH]nc(-c4nc5c(-c6cccc(F)c6)cccc5[nH]4)c3n2)c1 [compound 136] | 84.6% | 
3 | 0.013 µM | 0.007 µM | 30 nM | 0.001 µM |  |  | CN(C)Cc1cncc(-c2cnc3[nH]nc(-c4nc5c(-c6cccc(F)c6)cncc5[nH]4)c3c2)c1 [compound 137] | 183% | 
4 | 1.05 µM | 0.197 µM | 30 nM | 0.001 µM |  |  | CN(C)Cc1cncc(-c2ccc3[nH]nc(-c4nc5c(-c6cccc(F)c6)nccc5[nH]4)c3n2)c1 [compound 138] | 75.6% | 
5 | 1.05 µM | 0.079 µM |  | 0.003 µM |  |  | CN(C)Cc1cncc(-c2ccc3[nH]nc(-c4nc5c(-c6cccc(F)c6)cncc5[nH]4)c3n2)c1 [compound 139] | 16.7% | 
6 | 0.0264 µM | 0.033 µM |  | 0.009 µM | 30 nM |  | Fc1cccc(-c2cncc3[nH]c(-c4n[nH]c5ccc(-c6cncc(CN7CCC(F)(F)C7)c6)cc45)nc23)c1 [compound 141] | 102% | 
7 |  | 0.09 µM |  | 0.021 µM | 10 nM | 0.0191 µM | Fc1cccc(-c2cncc3[nH]c(-c4n[nH]c5ccc(-c6cncc(CN7CCC(F)(F)C7)c6)cc45)nc23)c1 [compound 142] |  | 85.77%
8 | 0.011 µM | 0.045 µM |  | 0.017 µM |  |  | Oc1cncc(-c2ccc3[nH]nc(-c4nc5c(-c6cccc(F)c6)cccc5[nH]4)c3c2)c1 [compound 143] | 52.2% | 
9 | 0.46 µM | 0.093 µM | 6.86 nM | 0.005 µM |  |  | Oc1cncc(-c2ccc3[nH]nc(-c4nc5c(-c6cccc(F)c6)nccc5[nH]4)c3n2)c1 [compound 144] | 56.7% | 
10 | > 10 µM | 0.074 µM | 20.6 nM | 0.005 µM |  |  | Oc1cncc(-c2ccc3[nH]nc(-c4nc5c(-c6cccc(F)c6)cncc5[nH]4)c3n2)c1 [compound 145] | 53.6% | 
11 | 0.375 µM | 0.113 µM | 2.29 nM | 0.005 µM |  |  | Oc1cncc(-c2ccc3[nH]nc(-c4nc5c(-c6cccc(F)c6)ccnc5[nH]4)c3n2)c1 [compound 146] | 59.3% | 
12 | 0.0313 µM | 0.493 µM | 300 nM | 0.009 µM |  |  | COc1cncc(-c2cc3c(-c4nc5c(-c6cccc(F)c6)cncc5[nH]4)n[nH]c3cn2)c1 [compound 147] | 140% | 
13 | 0.12 µM | 0.124 µM | 20.6 nM | 0.004 µM |  |  | COc1cncc(-c2ccc3[nH]nc(-c4nc5c(-c6cccc(F)c6)nccc5[nH]4)c3n2)c1 [compound 148] | 60.4% | 
14 | 0.0302 µM | 0.093 µM | 100 nM | 0.011 µM |  |  | Fc1cccc(-c2ccnc3[nH]c(-c4n[nH]c5ncc(-c6cn[nH]c6)cc45)nc23)c1 [compound 153] | 110% | 
15 | 0.0111 µM | 0.138 µM | 30 nM | 0.014 µM |  |  | Cn1cc(-c2cnc3[nH]nc(-c4nc5c(-c6cccc(F)c6)nccc5[nH]4)c3c2)cn1 [compound 155] | 74.9% | 
16 | 0.01 µM | 1.8 µM | 100 nM | 0.01 µM |  |  | Cn1cc(-c2cc3c(-c4nc5c(-c6cccc(F)c6)nccc5[nH]4)n[nH]c3cn2)cn1 [compound 156] | 110% | 
17 | 0.07 µM | 0.416 µM | 100 nM | 0.002 µM |  |  | Cn1cc(-c2cc3c(-c4nc5c(-c6cccc(F)c6)cncc5[nH]4)n[nH]c3cn2)cn1 [compound 157] | 71% | 
18 | 0.15 µM | 0.083 µM | 10 nM | 0.003 µM |  |  | Cc1ncc(-c2ccc3[nH]nc(-c4nc5c(-c6cccc(F)c6)cccc5[nH]4)c3n2)n1C [compound 158] | 112% | 

Row | EC50 ([1]; Homo sapiens, SW480, Table 4) | EC50 (CLK3 kinase) | EC50 [2, 3] | EC50 (CLK2 kinase) | EC50 [2] | EC50 ([1]; Table 4) | Structure (SMILES) | Emax [2, 4] | Max. Activity as % TGF-β3 activity ([2]; maximum activity relative to TGF-β3 (10 ng/mL) positive control)
19 | 0.0125 µM | 0.034 µM | 100 nM | 0.001 µM |  |  | Cc1ncc(-c2cnc3[nH]nc(-c4nc5c(-c6cccc(F)c6)nccc5[nH]4)c3c2)n1C [compound 159] | 152% | 
20 | 0.011 µM | 0.037 µM | 300 nM | 0.003 µM |  |  | CCC(=O)Nc1cncc(-c2cnc3[nH]nc(-c4nc5c(-c6ccc(F)cc6)cncc5[nH]4)c3c2)c1 [compound 160] | 143% | 
21 | 0.004 µM | 0.105 µM | 100 nM | 0.017 µM |  |  | CC(C)(C)C(=O)Nc1cncc(-c2ccc3[nH]nc(-c4nc5c(-c6ccc(F)cc6)cncc5[nH]4)c3c2)c1 [compound 161] | 128% | 
22 | 2.73 µM | 9.84 µM |  | 0.008 µM |  |  | CC(C)(C)C(=O)Nc1cncc(-c2ccc3[nH]nc(-c4nc5c(-c6ccc(F)cc6)cncc5[nH]4)c3n2)c1 [compound 162] | 41.8% | 
23 | 0.057 µM | 0.075 µM | 100 nM | 0.032 µM |  |  | CC(C)CC(=O)Nc1cncc(-c2ccc3[nH]nc(-c4nc5c(-c6ccc(F)cc6)cncc5[nH]4)c3c2)c1 [compound 163] | 125% | 
24 | 0.0057 µM | 0.087 µM | 100 nM | 0.028 µM |  |  | O=C(Nc1cncc(-c2ccc3[nH]nc(-c4nc5c(-c6ccc(F)cc6)cncc5[nH]4)c3c2)c1)C1CCC1 [compound 164] | 203% | 
25 | 0.0088 µM | 0.02 µM | 100 nM | 0.002 µM |  |  | Nc1cncc(-c2ccc3[nH]nc(-c4nc5c(-c6ccccc6F)nccc5[nH]4)c3c2)c1 [compound 165] | 61.9% | 
26 | 1.07 µM | 0.209 µM | 30 nM | 0.003 µM |  |  | Nc1cncc(-c2ccc3[nH]nc(-c4nc5c(-c6ccccc6F)cccc5[nH]4)c3n2)c1 [compound 166] | 81.8% | 
27 | 0.002 µM | 0.019 µM | 30 nM | 0.004 µM |  |  | Nc1cncc(-c2ccc3[nH]nc(-c4nc5c(-c6ccccc6F)ccnc5[nH]4)c3c2)c1 [compound 167] | 113% | 
28 | 0.0123 µM | 0.076 µM | 300 nM | 0.033 µM |  |  | Nc1cncc(-c2cnc3[nH]nc(-c4nc5c(-c6ccccc6F)ccnc5[nH]4)c3c2)c1 [compound 168] | 59.9% | 
29 | > 10 µM | 0.05 µM | 10 nM | 0.001 µM |  |  | Nc1cncc(-c2ccc3[nH]nc(-c4nc5c(-c6ccccc6F)nccc5[nH]4)c3n2)c1 [compound 169] | 108% | 
30 | > 10 µM | 0.012 µM | 10 nM | 0.001 µM |  |  | Nc1cncc(-c2ccc3[nH]nc(-c4nc5c(-c6ccccc6F)cncc5[nH]4)c3n2)c1 [compound 170] | 98.2% | 
31 | > 10 µM | 0.034 µM | 10 nM | 0.001 µM |  |  | Nc1cncc(-c2ccc3[nH]nc(-c4nc5c(-c6ccccc6F)ccnc5[nH]4)c3n2)c1 [compound 171] | 127% | 
32 | 0.008 µM | 0.117 µM |  | 0.007 µM |  |  | CCCC(=O)Nc1cncc(-c2cnc3[nH]nc(-c4nc5c(-c6ccccc6F)cncc5[nH]4)c3c2)c1 [compound 172] | 82.8% | 
33 | > 10 µM | 9.84 µM | 10 nM | 0.004 µM |  |  | CC(C)C(=O)Nc1cncc(-c2ccc3[nH]nc(-c4nc5c(-c6ccccc6F)cncc5[nH]4)c3n2)c1 [compound 174] | 181% | 
34 | 0.823 µM | 0.18 µM |  | 0.005 µM |  |  | O=C(Nc1cncc(-c2ccc3[nH]nc(-c4nc5c(-c6ccccc6F)cccc5[nH]4)c3n2)c1)C(F)(F)F [compound 175] | 40.1% | 
35 | > 10 µM | 0.149 µM | 10 nM | 0.006 µM |  |  | O=C(Nc1cncc(-c2ccc3[nH]nc(-c4nc5c(-c6ccccc6F)ccnc5[nH]4)c3n2)c1)C(F)(F)F [compound 176] | 74% | 
